{"source": "patent US9181307B2", "about": "“Influenza A 2009 pandemic H1N1 polypeptide fragments comprising endonuclease activity and their use” (priority 2010, dated 2015)", "origin": "cited, not measured here", "target": "influenza endonuclease (Influenza A virus, UniProt P03433)", "details": "recently reported, Kuzuhara 2009; cited from earlier work", "data": [{"smiles": "O=C(O[C@@H]1Cc2c(O)cc(O)cc2O[C@@H]1c1cc(O)c(O)c(O)c1)c1cc(O)c(O)c(O)c1", "note": "[EGCG, [(2R,3R)-5,7-dihydroxy-2-(3,4,5-trihydroxyphenyl)chroman-3-yl]3,4,5-trihydroxybenzoate]", "values": [{"measurement": "inhibits the influenza endonuclease", "value": "inhibits the influenza endonuclease"}]}]}
